Test results published in US11793781B2, “Autoimmune disorder treatment using RXR agonists” (Io Therapeutics, Inc., priority 2011, dated 2023).

Legend:
FXR/RXR = assay: Permissive RXR heterodimer transactivation; type: cell-based; settings: appropriate receptor and reporter constructs
RXRγ = target: T1, RXRγ (Homo sapiens, UniProt P48443); assay: RXR homodimer transactivation assay in CV-1 cells (RXRE-tk-Luc); type: cell-based
T1 construct: an expression construct including a full length RXRα, RXRβ, or RXRγ; expressed in transfected cells; host or cells: CV-1 cells
T1 sequence (P48443 1-463): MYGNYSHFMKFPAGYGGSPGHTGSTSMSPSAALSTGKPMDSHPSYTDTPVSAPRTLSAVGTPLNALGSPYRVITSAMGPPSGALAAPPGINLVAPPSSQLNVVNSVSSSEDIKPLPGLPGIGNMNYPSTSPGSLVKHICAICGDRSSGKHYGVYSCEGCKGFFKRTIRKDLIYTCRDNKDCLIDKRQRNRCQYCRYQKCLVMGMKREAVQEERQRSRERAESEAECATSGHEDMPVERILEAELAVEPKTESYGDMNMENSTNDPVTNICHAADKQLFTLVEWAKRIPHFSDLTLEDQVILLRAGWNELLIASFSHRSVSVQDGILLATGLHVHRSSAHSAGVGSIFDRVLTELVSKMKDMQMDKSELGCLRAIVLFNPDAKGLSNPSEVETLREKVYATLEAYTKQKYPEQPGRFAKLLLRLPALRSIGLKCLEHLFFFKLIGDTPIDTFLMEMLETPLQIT
Experimental: To determine whether a RXR agonist can mediate its effects via an RXRα receptor homodimers, RXRβ receptor homodimers, RXRγ receptor homodimers, or any combination thereof, or the corresponding RAR/RXR heterodimers, receptor-mediated transactivation assays were performed. […] Data are mean values±SE from five independent experiments.

[1] = tested on: experimental autoimmune encephalomyelitis (EAE); assay: EAE in SJL mice (PLP peptide); type: in vivo
Experimental: To determine whether a RXR agonist can attenuate multiple sclerosis, SJL mice were immunized to induce EAE by s.c. injection at the base of their spine with 200 uL of adjuvant containing 200 ug proteolipid proteins (139-151) (PLP peptide; Peptides International, Louisville, Ky.) and 400 ug of non-viable M. tuberculosis H37 desiccate emulsified in a mixture of incomplete Freund's adjuvant and PBS. Mice were also given 150 ng of pertussis toxin in PBS i.p. on the same day as PLP emulsion injection and 2 days later. […] Mice were scored using the scale described in Example 6.

[2] = tested on: experimental autoimmune encephalomyelitis (EAE); assay: EAE in C57BL/6 (B6) mice (MOG peptide); type: in vivo; settings: 50 ug i.p. every other day from day 7, FIG. 5
Experimental: Mice were also given 200 ng of pertussis toxin in PBS administered by inter-peritoneal (i.p.) injection on the same day as MOG emulsion injection (day 0) and 2 days later (day 2). […] Mice were scored using the following scale: 0—Mice have no disease, 1—Mice have distal limp tail or rear leg weakness (paresis), 1.5—Mice have distal limp tail and rear leg weakness, 2—Mice have complete limp tail and rear leg weakness, 2.5—Mice have complete limp tail and weakness in both rear legs, 3—Mice have complete limp tail and paralysis in both rear legs, 3.5—Mice have complete limp tail, paralysis in both rear legs, and forelimb weakness. Mice receiving a score of 3.5 were immediately euthanized.

[3] = tested on: Naive CD4+ CD25− FoxP3− cells; assay: Th17 cell differentiation conditions: Foxp3 and IL-17A expression; type: cell-based, mouse; settings: 0, 1, 10, 100 nM, as concentration increased
Experimental: To determine whether a RXR agonist can regulate T cell differentiation, the ability of an RXR agonist to promote Treg cell differentiation and inhibit Th17 cell differentiation under Th17 cell differentiation conditions was assessed by monitoring Foxp3 and IL-17A expression. Naive CD4^+ CD25^− FoxP3^− cells were purified from a Foxp3-GFP mouse using flow cytometry by sorting and isolating based upon a GFP^− phenotype. […] See, e.g., Elias, et al., Retinoic Acid Inhibits Th17 Polarization and Enhances FoxP3 Expression through a Stat-3/Stat-5 Independent Pathway, Blood 111(3): […] (2008). […] FIG. 2A. […] FIG. 2B.

PPAR/RXR = assay: Permissive RXR heterodimer transactivation; type: cell-based; settings: appropriate receptor and reporter constructs
Source text: (§1) This difference represents >2,000-fold selectivity for RXRs over RARs in functional transactivation assays. […] FIG. 4. […] In this regard, RXR agonist 194204 is distinct from other RXR agonists.

LXR/RXR = assay: Permissive RXR heterodimer transactivation; type: cell-based; settings: appropriate receptor and reporter constructs
Source text: as §1

[4] = tested on: CNS infiltrating leukocytes; assay: CNS infiltrating cells in EAE B6 mice (FACS); type: in vivo, C57BL/6 (B6) mice; settings: day 20, versus vehicle control, FIG. 6
Experimental: To determine whether a RXR agonist can reduce central nervous system (CNS) infiltrating cells, C57BL/6 (B6) mice were treated as described in Example 6. On day 20 after immunization, mice were sacrificed and perfused with phosphate buffered saline (PBS). Brain and spinal cord tissue was isolated, digested with DNase and Liberase DL (Roche Diagnostics, Indianapolis, Ind.) for 30 minutes, and homogenized through 70 micron nylon mesh filters. Resulting cells were placed over a Percoll gradient to remove myelin. The remaining cells (microglia and CNS infiltrating cells) were counted, stained for molecules of interest, and run on a flow cytometer. Based on the frequencies obtained by FACS of these cell populations, total cell numbers of CNS infiltrating leukocytes expressing CD45, including CD4^+ T cells and CD11c^+ CD11b^+ myeloid dendritic cells (DC), were calculated.

RXRs and RARs = assay: Functional transactivation assays, RXRs compared with RARs; type: cell-based
Experimental: To determine whether a RXR agonist can mediate its effects via an RXRα receptor homodimers, RXRβ receptor homodimers, RXRγ receptor homodimers, or any combination thereof, or the corresponding RAR/RXR heterodimers, receptor-mediated transactivation assays were performed. For transactivation assays assessing RXR homodimer signaling, CV-1 cells were transfected with 1) an expression construct including a full length RXRα, RXRβ, or RXRγ; and 2) a rCRBPII/RXRE-tk-Luc reporter construct that included RXR homodimer-specific RXRE/DR1 responsive element linked to a luciferase gene. For transactivation assays assessing RAR/RXR heterodimer signaling, CV-1 cells were transfected with 1) an expression construct comprising a fusion protein including an estrogen receptor (ER) DNA binding domain linked to the ligand binding domain of RARα, RARβ, or RARγ and 2) a ERE-tk-Luc reporter construct that included an estrogen receptor responsive element linked to a luciferase gene. The ER-RAR fusion proteins provided an accurate readout of only the transfected ER-RAR. […] Data are mean values±SE from five independent experiments.

RXRα = target: T2, RXRα (Homo sapiens, UniProt P19793); assay: RXR homodimer transactivation assay in CV-1 cells (RXRE-tk-Luc); type: cell-based; settings: 20 hours, luciferase
T2 sequence (P19793 1-462): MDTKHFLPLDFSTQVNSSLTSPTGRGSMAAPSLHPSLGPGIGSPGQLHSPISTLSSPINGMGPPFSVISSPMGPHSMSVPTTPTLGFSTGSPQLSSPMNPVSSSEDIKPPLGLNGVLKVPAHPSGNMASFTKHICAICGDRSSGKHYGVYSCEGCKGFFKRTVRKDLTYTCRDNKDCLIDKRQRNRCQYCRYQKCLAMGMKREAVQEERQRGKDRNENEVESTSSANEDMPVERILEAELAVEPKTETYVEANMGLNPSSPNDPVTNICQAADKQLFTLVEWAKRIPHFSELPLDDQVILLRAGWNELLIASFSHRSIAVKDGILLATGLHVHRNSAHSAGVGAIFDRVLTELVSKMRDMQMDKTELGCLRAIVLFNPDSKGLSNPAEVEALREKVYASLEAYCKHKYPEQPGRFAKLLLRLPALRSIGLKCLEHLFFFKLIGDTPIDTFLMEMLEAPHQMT
Source text: For transactivation assays assessing RXR homodimer signaling, CV-1 cells were transfected with 1) an expression construct including a full length RXRα, RXRβ, or RXRγ; and 2) a rCRBPII/RXRE-tk-Luc reporter construct that included RXR homodimer-specific RXRE/DR1 responsive element linked to a luciferase gene. For transactivation assays assessing RAR/RXR heterodimer signaling, CV-1 cells were transfected with 1) an expression construct comprising a fusion protein including an estrogen receptor (ER) DNA binding domain linked to the ligand binding domain of RARα, RARβ, or RARγ and 2) a ERE-tk-Luc reporter construct that included an estrogen receptor responsive element linked to a luciferase gene. […] Data are mean values±SE from five independent experiments.

[5] = tested on: Naive CD4+ CD25− FoxP3− cells; assay: Treg cell differentiation conditions: Foxp3 and α4β7 expression; type: cell-based, mouse
Experimental: To determine whether a RXR agonist can induce Treg cell differentiation, the ability of an RXR agonist to promote Treg cell differentiation under Treg cell differentiation conditions was assessed by monitoring Foxp3 and α4β7 expression. Naive CD4^+ CD25^− FoxP3^− cells were purified from a Foxp3-GFP mouse using flow cytometry by sorting and isolating based upon a GFP^− phenotype. These cells were then cultured under Treg cell differentiation conditions by treating the cells with αCD3 and αCD28 polyclonal antibodies in the presence of IL-2 and TGF-β. […] FIG. 1A. […] FIG. 1B.

[6] = 50 ug i.p. every other day from day 7, FIG. 7

SMILES: CC(/C=C/[C@@H]1C[C@]1(C)c1ccc2c(c1)C(C)(C)CCC2(C)C)=C\C(=O)O [RXR agonist 194204, 3,7-dimethyl-6(S),7(S)-methano,7-[1,1,4,4-tetramethyl-1,2,3,4-tetrahydronaphth-7-yl]2(E),4(E) heptadienoic acid]
- transactivation of permissive RXR heterodimer FXR/RXR (FXR/RXR): not to transactivate
- Efficacy (% of 1 μM 194204) RXRγ (RXRγ): 0.09 ± 0.01 100 % of 1 μM 194204
- symptoms of EAE (disease severity score) [1, 6]: significantly reduces the symptoms of EAE
- time course of efficacy [1, 6]: observed after the second administration (day 8) and maintained throughout the course of the study (day 14)
- Disease Incidence ([1]; 50 ug i.p. every other day from day 7, mice affected/group): 4/6
- Death from Disease ([1]; 50 ug i.p. every other day from day 7, mice/group): 0/6
- Mean Maximum Score ([1]; 50 ug i.p. every other day from day 7, scale 0-3.5): 1.5 ± 1.4
- symptoms of EAE (disease severity score) [2]: significantly reduces the symptoms of EAE
- time course of efficacy [2]: observed after the first administration (day 7) and maintained throughout the course of the study (day 20)
- Foxp3 expression ([3]; FIG. 2A): Foxp3 expression increased
- IL-17A expression ([3]; FIG. 2B): IL-17A expression decreased
- transactivation of permissive RXR heterodimer PPAR/RXR (PPAR/RXR): not to transactivate
- transactivation of permissive RXR heterodimer LXR/RXR (LXR/RXR): not to transactivate
- infiltration of CD4+ cells into the CNS [4]: significant reduction
- infiltration of CD11c+ CD11b+ cells (myeloid DC) into the CNS [4]: significant reduction
- more potent in activating RXR receptors rather than RAR receptors (RXRs and RARs; FIG. 4): > 1,000 fold
- activity at RARs (RXRs and RARs; at ≥1 μM): minimal activity
- Efficacy (% of 1 μM 194204) RXRα (RXRα): 100 % of 1 μM 194204
- Foxp3+ T cells induced ([5]; Treg conditions (αCD3, αCD28, IL-2, TGF-β), concentrations of 1 nM or higher, FIG. 1A): ~100%
- α4β7 expression ([5]; Treg conditions, 0.1, 1.0, 10 nM, FIG. 1B): induced expression of α4β7
